Results on 31 molecules are retold here after PubChem BioAssay AID743233 (The Scripps Research Institute Molecular Screening Center, 2013).

Activity calls are given as the source filed them. No rule for the calls is given here.

The test system of this experiment is Galpha16-expressing cells, calcium fluorescence, counterscreen. In words: Ga16 cell calcium inhibition, concentration series – fluorescence, dose response, counter-screen for TAAR1 agonist project, late-stage follow-up (AID 743233). Background: A counterscreen serves to expose hits that act by an unwanted route or on another target.
For `Cc1cc(N(C)C)nc(Nc2ccccc2)n1`, the IC50 is > 29.9 µM (inactive).

As for `O=c1[nH]cc(NCCc2ccccc2)c(=O)[nH]1`, the IC50 was > 29.9 µM (inactive).

With `O=C(C(=O)N1CCc2ccccc2C1)c1cn(CC(=O)N2CCCCC2)c2ccccc12`, the IC50 was > 29.9 µM (inactive).

For `NC(N)=NN=Cc1c(Cl)cccc1Cl`, the IC50 is > 29.9 µM (inactive).

With `CCOC(=O)C(NC(C)=O)(N1CCc2ccccc2C1)C(F)(F)F` (stereo unspecified), the IC50 is > 29.9 µM (inactive).

For the molecule `O=C(CCN1CCc2ccccc2CC1)c1ccc2c(c1)OCCO2`, the IC50 is > 29.9 µM (inactive).

As for `CC1(C)CCCN(C(=O)c2coc(=O)c(Br)c2)C1`, the IC50 was > 29.9 µM (inactive).

As for `O=C(CCN1CCC(c2ccccc2)C1)c1ccc2c(c1)OCCO2` (stereo unspecified), the IC50 is > 29.9 µM (inactive).

As for `O=C(Nc1cccnc1)Nc1cccc(F)c1`, the IC50 is > 29.9 µM (inactive).

Take `Nc1nc(Nc2cccc(F)c2)nc2ccccc12`: the IC50 is > 29.9 µM (inactive).

For `Cc1ccc(NC(=O)CCN2CCc3ccccc3C2)cc1`, the IC50 was > 29.9 µM (inactive).

As for `O=C(CCCCl)N1CCc2[nH]c3ccccc3c2C1`, the IC50 was > 29.9 µM (inactive).

For the molecule `COc1cc(C(=O)CCN2CCC(c3ccccc3)C2)cc(OC)c1OC` (stereo unspecified), the IC50 is > 29.9 µM (inactive).

Consider `c1ccc2c(c1)CCN(c1nc3cc4c(cc3s1)OCO4)C2`, for which the IC50 was > 29.9 µM (inactive).

Turning to `c1ccc2c3c([nH]c2c1)CCNC3`, the IC50 was > 29.9 µM (inactive).

`O=C(CCN1CCC(c2ccccc2)C1)c1cccs1` (stereo unspecified): the IC50 was > 29.9 µM (inactive).

`Nc1nc(Nc2ccccc2)nc2ccccc12`: the IC50 is > 29.9 µM (inactive).

Regarding `O=C(Nc1ccccc1)Nc1ccncc1`, the IC50 was > 29.9 µM (inactive).

As for `NC(N)=Nc1cc2ccccc2c2ccccc12`, the IC50 is > 29.9 µM (inactive).

For the molecule `c1ccc(CCN2CN(CCCN3CCOCC3)c3nc4ccccc4n3C2)cc1`, the IC50 is > 29.9 µM (inactive).

As to `NCc1c(O)ccc2ccccc12`, the IC50 was > 29.9 µM (inactive).

For the molecule `OCCNc1nc(Nc2ccc(O)cc2)nc2ccccc12`, the IC50 is > 29.9 µM (inactive).

Take `Cc1[nH]c2ccccc2c1CN1CCc2ccccc2C1`: the IC50 was > 29.9 µM (inactive).

In the case of `O=C(Nc1ccncc1)Nc1ccc(F)cc1`, the IC50 was > 29.9 µM (inactive).

Turning to `Cc1cc(C)n(C(CC(=O)N2CCc3ccccc3C2)C(=O)O)n1` (stereo unspecified), the IC50 is > 29.9 µM (inactive).

In the case of `CC(=NCCc1ccccc1)C1CCOC1=O` (stereo unspecified), the IC50 was > 29.9 µM (inactive).

For `c1ccc(CCn2nnnc2C(c2cccs2)N2CCN(Cc3ccc4c(c3)OCO4)CC2)cc1` (stereo unspecified), the IC50 is > 29.9 µM (inactive).

In the case of `O=C(Nc1cccc2ccccc12)N1CCc2ccccc2C1`, the IC50 is > 29.9 µM (inactive).

With `CC(=C1C(=O)c2ccccc2C1=O)N1CCc2ccccc2C1`, the IC50 was > 29.9 µM (inactive).

With `CCOC(=O)C(NC(=O)CC)(N1CCc2ccccc2C1)C(F)(F)F` (stereo unspecified), the IC50 was > 29.9 µM (inactive).

As to `OCCNc1nc(Nc2cccc(O)c2)nc2ccccc12`, the IC50 was > 29.9 µM (inactive).

The IC50 is the concentration that inhibits the measured activity by half.
